What was measured:
U251 and PD-GB4 GB cells = assay: In vitro cytotoxicity of SELPi (annexin-FITC/PI apoptosis-necrosis staining); assay type: cell-based, human
Method: Flow cytometry. For flow cytometry assays, cells were harvested using a cell scraper, and were then washed with PBS followed by additional washes with PBS supplemented with 1% BSA and 5 mM EDTA (FACS buffer). Tumor spheroids were recovered from Matrigel using Cell Recovery Solution (Corning) and washed with FACS buffer. To validate the purity of the microglia preparations, CD11b isolated cells or human microglia were incubated with TMEM119 and P2Y12-labeled antibodies for 1 h. For human TMEM119, primary antibody was unlabeled and cells were washed and incubated with secondary, Alexa 488 conjugated antibody. To assess P-Selectin and PSGL-1 expression, GB cells and microglia were seeded alone, co-cultured in a 2D petri dish, or grown as spheroids seeded in Matrigel. Cells were treated with control medium or CM for 48 h. They were then incubated with mouse anti-human P-Selectin antibody for 1 h on ice, and then were washed, and incubated with Alexa-488 labeled anti-mouse IgG binding protein for 1 h on ice. Alternatively, cells were incubated with rat anti-human PSGL antibody, and then were washed, and incubated with goat anti-rat, Alexa-488 labeled antibody for 1 h on ice. […] Fluorescence intensity was assessed using either an Attune flow cytometer (Life Technologies) or a Gallios™ flow cytometer (Beckman Coulter, USA) and the results were analyzed by Kaluza software (Beckman Coulter, USA).

P-Selectin = target: T1, P-Selectin (Homo sapiens, UniProt P16109); conditions: cited from earlier work
T1 sequence (P16109 42-830): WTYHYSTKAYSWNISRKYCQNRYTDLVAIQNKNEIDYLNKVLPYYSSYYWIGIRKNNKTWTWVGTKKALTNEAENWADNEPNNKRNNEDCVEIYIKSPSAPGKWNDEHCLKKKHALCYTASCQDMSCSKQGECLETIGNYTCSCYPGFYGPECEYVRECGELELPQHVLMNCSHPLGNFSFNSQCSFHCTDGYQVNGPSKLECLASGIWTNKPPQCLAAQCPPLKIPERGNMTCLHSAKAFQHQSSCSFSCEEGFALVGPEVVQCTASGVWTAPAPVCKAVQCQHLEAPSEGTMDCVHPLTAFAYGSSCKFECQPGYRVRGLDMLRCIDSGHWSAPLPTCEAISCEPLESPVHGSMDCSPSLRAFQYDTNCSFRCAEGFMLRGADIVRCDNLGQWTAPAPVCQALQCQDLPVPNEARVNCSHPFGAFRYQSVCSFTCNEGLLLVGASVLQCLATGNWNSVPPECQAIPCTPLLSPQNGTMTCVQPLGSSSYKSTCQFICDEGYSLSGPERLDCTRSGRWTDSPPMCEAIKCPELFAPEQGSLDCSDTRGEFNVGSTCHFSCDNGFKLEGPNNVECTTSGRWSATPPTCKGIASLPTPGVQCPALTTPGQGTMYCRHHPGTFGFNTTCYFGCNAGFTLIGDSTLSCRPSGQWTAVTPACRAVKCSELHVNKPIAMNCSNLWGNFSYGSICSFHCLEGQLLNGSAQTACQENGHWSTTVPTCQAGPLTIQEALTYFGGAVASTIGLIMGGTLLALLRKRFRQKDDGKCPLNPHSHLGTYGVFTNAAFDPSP

PD-GB4 tumors = assay: Local (intraventricular cannula) SELPi treatment in PD-GB PDX model; assay type: in vivo, SCID mice
Method: Tumor volume was evaluated by MRI. […] Twelve days post cell inoculation, 3 mice per group were euthanized and brain were resected and further processed for histology analysis. […] Brain cannulas (NBT) were implanted intraventricularly in the co-lateral hemisphere and the mice were treated stereotactically via the cannulas (1 µl at 0.2 µl/min flow rate) with PBS, 2 mg/kg SELPi dissolved in DMSO or vehicle (DMSO). Three weeks post cell-inoculation, the mice were euthanized, the cannulas were removed, and tumor volume was evaluated by MRI (MR solutions). Brains were resected for immunostaining.
MRI imaging. Tumor bearing mice were imaged at the Sackler Cellular & Molecular Imaging Center (SCMIC), Tel Aviv University. Mice were anesthetized by ketamine (150 mg/kg) and xylazine (12 mg/kg) injected IP. T1 with contrast agent (Magnetol, Gd-DTPA, Soreq M.R.C. Israel Radiopharmaceuticals) and T2 weighted images were taken by 4.7T MRI - MRS 4000™ (MR solutions).

COc1ccc(C2CC(c3c(O)cc(C)oc3=O)=NCCS2)c(OC)c1 (stereo not shown) [SELPi, 3-[7-(2,4-Dimethoxyphenyl)-2,3,6,7-tetrahydro-1,4-thiazepin-5-yl]-4-hydroxy-6-methyl-2H-pyran-2-one]
toxicity (U251 and PD-GB4 GB cells; 0.5 µM SELPi (working concentration)): no toxicity was observed | percentage of apoptotic cells (U251 and PD-GB4 GB cells; 5 and 10 µM SELPi, 72 h): slight increase in the percentage of apoptotic cells | IC50 (P-Selectin; P-Selectin inhibition): 1970 nM | blocking of SELP-binding (P-Selectin; in vitro and in vivo): block SELP-binding | reduction in tumor volume (MRI) (PD-GB4 tumors; PD-GB4, 2 mg/kg SELPi intraventricular via cannula, 21 days post injection): 67% | tumor growth (tumor volume, MRI) (PD-GB4 tumors; PD-GB4, local SELPi treatment, day 21): delayed growth | CD31 density (PD-GB4 tumors; PD-GB4 tumors): reduction | Iba1 density (PD-GB4 tumors; PD-GB4 tumors): reduction | invasion of GB cells (PD-GB4 tumors; PD-GB4 tumors): reduced | proliferation of GB cells (PD-GB4 tumors; PD-GB4 tumors): reduced
